# Results published in US11879132B2, “Plants having increased tolerance to herbicides” (BASF AGRO B.V., priority 2016, dated 2024).
# Like-named read-outs stand apart in the source and are kept apart here.
# Experiments:
# [1] = tested on: empty vector-transformed leaf discs; test: PSII yield inhibition in tobacco leaf discs (imaging PAM chlorophyll fluorescence); type: cell-based; settings: Nicotiana benthamiana, read-out: IC50 of PSII yield inhibition
# Source text: Transient expression of mutated PPO sequences as wildtype or with respective mutations were done as described previously (Voinnet O., et al., 2003, The Plant Journal 33, 949-956). In brief, cloning of GOI and Agrobacterium transformation (strain: GV2260) were done as described in EXAMPLE 5. Young leaves of Nicotiana benthamiana were infiltrated with transgenic Agrobacterium suspension (OD^600 of 1.0) harboring binary vector constructs containing a GO/gene controlled by a promoter and terminator sequence. 48 h to 72 h after infiltration punches of leave discs (0.75 cm in diameter) were transferred to 6-well plates with medium (half strength Linsmaier-Skoog (Linsmaier and Skoog (1965) Physiol. Plant. 18: 100-127) nutrient solution or water) containing herbicide of interest in different concentrations. […]
# Leaf discs, generated as described in EXAMPLE 14, expressing a protein encoded by GOI, were subjected to analysis on improved tolerance to herbicide treatment. For analysis of herbicide damage, chlorophyll fluorescence were identified as indicative marker (Dayan and Zaccaro (2012) Pest. Biochem. Physiol. 102: 189-197). […] PSII yield were measured as per manufacturer instructions.
# Tolerance factors were calculated based on IC50 values of PSII yield inhibition of transformed versus empty vector-transformed leaf discs.
# [2] = tested on: non-transgenic (MC-24) Arabidopsis; test: Germination assay, ARBTH germinating in medium containing selection agent (48-well plates); type: in vivo, Arabidopsis thaliana
# Experimental: Transgenic Arabidopsis thaliana plants are assayed for improved tolerance to saflufenacil, 1,5-dimethyl-6-thioxo-3-(2,2,7-trifluoro-3-oxo-4-(prop-2-ynyl)-3,4-dihydro-2H-benzo[b][1,4]oxazin-6-yl)-1,3,5-triazinane-2,4-dione (CAS 1258836-72-4/trifludimoxazin), flumioxazin, butafenacil, acifluorfen, lactofen, bifenox, sulfentrazone, and photosynthesis inhibitor diuron as negative control in 48-well plates. Therefore, T2 seeds are surface sterilized by stirring for 5 min in ethanol+water (70+30 by volume), rinsing one time with ethanol+water (70+30 by volume) and two times with sterile, deionized water. […] Growth inhibition is evaluated seven to ten days after seeding in comparison to wild type plants.
# Transgenic Arabidopsis thaliana plants are assayed for improved tolerance to saflufenacil, 1,5-dimethyl-6-thioxo-3-(2,2,7-trifluoro-3-oxo-4-(prop-2-ynyl)-3,4-dihydro-2H-benzo[b][1,4]oxazin-6-yl)-1,3,5-triazinane-2,4-dione (CAS 1258836-72-4/trifludimoxazin), flumioxazin, butafenacil, acifluorfen, lactofen, bifenox, sulfentrazone, and photosynthesis inhibitor diuron as negative control, in 48-well plates. […] Growth inhibition was evaluated seven to ten days after seeding in comparison to wild type plants. […]
# [3] = tested on: transgenic Arabidopsis AMATU_PPO2_G211A_F420M; test: Germination assay, transgenic ARBTH germinating in medium containing selection agent (48-well plates); type: in vivo, Arabidopsis thaliana; settings: for IC50: Arabidopsis thaliana
# Experimental: (§1) Transgenic Arabidopsis thaliana plants are assayed for improved tolerance to saflufenacil, 1,5-dimethyl-6-thioxo-3-(2,2,7-trifluoro-3-oxo-4-(prop-2-ynyl)-3,4-dihydro-2H-benzo[b][1,4]oxazin-6-yl)-1,3,5-triazinane-2,4-dione (CAS 1258836-72-4/trifludimoxazin), flumioxazin, butafenacil, acifluorfen, lactofen, bifenox, sulfentrazone, and photosynthesis inhibitor diuron as negative control in 48-well plates. Therefore, T2 seeds are surface sterilized by stirring for 5 min in ethanol+water (70+30 by volume), rinsing one time with ethanol+water (70+30 by volume) and two times with sterile, deionized water. The seeds are resuspended in 0.1% agar dissolved in water (w/v) Four to five seeds per well are plated on solid nutrient medium consisting of half-strength murashige skoog nutrient solution, pH 5.8 (Murashige and Skoog (1962) Physiologia Plantarum 15: 473-497). Compounds are dissolved in dimethylsulfoxid (DMSO) and added to the medium prior solidification (final DMSO concentration 0.1%). Multi well plates are incubated in a growth chamber at 22° C., 75% relative humidity and 110 μmol Phot*m^−2*s^−1 with 14: 10 h light: dark photoperiod. Growth inhibition is evaluated seven to ten days after seeding in comparison to wild type plants.
# as §1, with “negative control,” for “negative control”, “inhibition was” for “inhibition is”, “plants. Additionally, transgenic T1 Arabidopsis plants were tested for improved tolerance to herbicides in greenhouse studies with the following herbicides: saflufenacil, 1,5-dimethyl-6-thioxo-3-(2,2,7-trifluoro-3-oxo-4-(prop-2-ynyl)-3,4-dihydro-2H-benzo[b][1,4]oxazin-6-yl)-1,3,5-triazinane-2,4-dione (CAS 1258836-72-4/trifludimoxazin), flumioxazin, butafenacil, acifluorfen, lactofen, bifenox, sulfentrazone, and photosynthesis inhibitor diuron as negative control.” for “plants.”
# [4] = tested on: transgenic Arabidopsis AMATU_PPO2_wild_type; test: as above; type: in vivo, Arabidopsis thaliana
# Experimental: as §1
# as §1, with “negative control,” for “negative control”, “inhibition was” for “inhibition is”, “plants. Additionally, transgenic T1 Arabidopsis plants were tested for improved tolerance to herbicides in greenhouse studies with the following herbicides: saflufenacil, 1,5-dimethyl-6-thioxo-3-(2,2,7-trifluoro-3-oxo-4-(prop-2-ynyl)-3,4-dihydro-2H-benzo[b][1,4]oxazin-6-yl)-1,3,5-triazinane-2,4-dione (CAS 1258836-72-4/trifludimoxazin), flumioxazin, butafenacil, acifluorfen, lactofen, bifenox, sulfentrazone, and photosynthesis inhibitor diuron as negative control.” for “plants.”
smiles,measurement,setting,value
"C#CCN1C(=O)C(F)(F)Oc2cc(F)c(-n3c(=O)n(C)c(=S)n(C)c3=O)cc21 [1,5-dimethyl-6-thioxo-3-(2,2,7-trifluoro-3-oxo-4-(prop-2-ynyl)-3,4-dihydro-2H-benzo[b][1,4]oxazin-6-yl)-1,3,5-triazinane-2,4-dione]",IC50,"[1]; empty vector-transformed leaf discs, treated for 48 h",0.011 µM
CC(C)N(C)S(=O)(=O)NC(=O)c1cc(-n2c(=O)cc(C(F)(F)F)n(C)c2=O)c(F)cc1Cl [Saflufenacil],Tolerance Factor (non transgeneic = 1.0),[2],1
same,IC50,[2]; Arabidopsis thaliana,0.025 µM
same,IC50,[3]; Event D,25 µM
same,IC50,[3]; Event M,25 µM
same,IC50,[3]; Event P,7.5 µM
same,IC50,[3]; Event Q,7.5 µM
same,IC50,[3]; Event R,7.5 µM
same,Tolerance Factor (non transgeneic = 1.0),[3]; Event D,1000
same,Tolerance Factor (non transgeneic = 1.0),[3]; Event M,1000
same,Tolerance Factor (non transgeneic = 1.0),[3]; Event P,300
same,Tolerance Factor (non transgeneic = 1.0),[3]; Event Q,300
same,Tolerance Factor (non transgeneic = 1.0),[3]; Event R,300
same,Tolerance Factor (non transgeneic = 1.0),[4],10
same,IC50,[4]; Arabidopsis thaliana,0.106 µM
same,IC50,[1]; 48 h,0.11 µM
